Experimental data taken from publication PMC5104425, “A Novel Selective Inhibitor of Delta-5 Desaturase Lowers Insulin Resistance and Reduces Body Weight in Diet-Induced Obese C57BL/6J Mice” (PLoS ONE, 2016).
pIC50: −log10 of the molar value.

What was measured:
[1] = test system: D5D; assay: Blood fatty acids (PD markers AA, DGLA, EPA, DHA) after 6-week treatment in DIO mice; assay type: in vivo, C57BL/6J mice; settings: compound-326 0.1, 1, 10 mg/kg, 6 weeks
Description: (§1) Fatty acids were extracted from blood and tissues by adding hexane-isopropanol-butylated hydroxytoluene (60:40:0.01, v/v/w). Samples were vortexed for 30 min. The hexane phase was removed and evaporated to dryness under nitrogen stream and vacuum. Dried samples were dissolved in methanol and analyzed by HPLC.
(§2) Mice were fed a high-fat diet (HFD) that has 60% kcal from fat and contains 0.09% (w/w) AA (D12492; Research diets, Inc., see S1 Table for fatty acid profile) from 5 weeks of age, and they were divided into 5 groups (7 animals per group) at 11 weeks of age based on BW and daily food intake. In this experiment, 30 mg/kg sibutramine, a […], was used as a positive control for anti-obesity effects. Mice were orally administered compound-326 at doses of 0.1, 1, and 10 mg/kg, sibutramine at a dose of 30 mg/kg, or vehicle for 6 weeks. After 6 weeks, blood concentrations of DGLA and AA under non-fasting condition were evaluated as pharmacodynamics (PD) markers, and oral glucose tolerance test (OGTT) was performed.

[2] = target: T1, human D6D (Homo sapiens, UniProt O95864); assay: In vitro cell-based assay for desaturase activity (HepG2), D6D
T1 construct: endogenous in cells; host or cells: HepG2
T1 sequence (O95864 1-444): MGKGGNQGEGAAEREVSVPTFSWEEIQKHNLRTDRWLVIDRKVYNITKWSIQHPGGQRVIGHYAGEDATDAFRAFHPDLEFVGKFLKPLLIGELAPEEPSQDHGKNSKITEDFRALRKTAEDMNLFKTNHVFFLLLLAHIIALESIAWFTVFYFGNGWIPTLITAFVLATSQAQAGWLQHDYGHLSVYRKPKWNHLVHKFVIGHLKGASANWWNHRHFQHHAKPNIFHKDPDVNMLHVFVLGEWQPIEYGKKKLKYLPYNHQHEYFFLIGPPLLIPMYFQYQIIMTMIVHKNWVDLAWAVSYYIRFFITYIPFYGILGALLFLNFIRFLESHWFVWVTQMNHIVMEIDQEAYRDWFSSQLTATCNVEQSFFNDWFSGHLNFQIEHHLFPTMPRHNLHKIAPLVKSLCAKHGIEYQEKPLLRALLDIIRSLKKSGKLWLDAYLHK
Description: (§3) HepG2 cells were seeded in 96-well cell culture plates at 100 000 cells/well and incubated overnight in DMEM supplemented with 10% fetal bovine serum, 100 U/mL penicillin, and 100 μg/mL streptomycin in 5% CO2 at 37°C. The cells were washed twice with 200 μL of PBS and incubated with the test compounds in DMEM with 0.1% fatty acid free BSA for 30 min. Then, 0.1 μCi/well of [^14C]-labeled DGLA, linoleic acid, and stearic acid (ARC, St. Louis, MO) were added for each desaturase assay. After incubation for 3 h at 37°C, the cells were washed 3 times with 200 μL of PBS to remove [^14C]-labeled substrates in the medium and 0.63 N of NaOH was added to saponify fatty acids. Radioactive substrates and products were extracted, separated, and analyzed using the method as described above.

[3] = test system: DIO mice; assay: Oral glucose tolerance test and HOMA-IR after 6-week treatment in DIO mice; assay type: in vivo, C57BL/6J mice
Description: as §2
On the last day of the experiment, mice were given an oral glucose load (2 g/kg) after overnight fasting. Blood samples were collected at specified time points of 0 (pre-glucose/fasting glucose levels), 10, 30, 60, and 120 min post glucose load for the determination of plasma glucose as well as insulin levels. Plasma glucose was enzymatically measured with auto-analyzer 7180 (Hitachi High-Technologies Corporation, Tokyo, Japan). Plasma insulin was measured with mouse insulin ELISA kit (Shibayagi, Gunma, Japan). The total area under the glucose curve was determined from time 0 to 120 min (AUC0–120 min) after glucose administration. Homeostasis model assessment-insulin […] (HOMA-IR) was calculated using the formula: [(fasted PG: mg/dL)×(fasted insulin; μU/mL)[…]/405] [28].

[4] = target: T2, human D5D (Homo sapiens, UniProt O60427); assay: In vitro cell-based assay for desaturase activity (HepG2), D5D
T2 construct: endogenous in cells; host or cells: HepG2
T2 sequence (O60427 whole entry): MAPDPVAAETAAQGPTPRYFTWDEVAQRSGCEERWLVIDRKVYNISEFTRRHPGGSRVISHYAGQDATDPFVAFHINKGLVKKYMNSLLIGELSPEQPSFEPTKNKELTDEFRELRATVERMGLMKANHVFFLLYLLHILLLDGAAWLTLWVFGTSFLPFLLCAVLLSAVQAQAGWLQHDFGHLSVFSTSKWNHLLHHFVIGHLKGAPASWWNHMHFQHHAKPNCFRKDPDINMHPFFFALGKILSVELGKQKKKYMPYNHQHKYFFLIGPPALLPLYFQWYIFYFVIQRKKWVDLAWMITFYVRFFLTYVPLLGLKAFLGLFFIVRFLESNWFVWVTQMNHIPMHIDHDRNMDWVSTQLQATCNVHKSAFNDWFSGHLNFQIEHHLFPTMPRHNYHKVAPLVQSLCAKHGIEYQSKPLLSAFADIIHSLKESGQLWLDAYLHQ
Description: as §3

[5] = test system: DIO mice; assay: 6-week treatment of HFD (D12079B)-fed DIO mice: BW and blood/tissue fatty acids; assay type: in vivo, C57BL/6J mice
Description: as §1
Mice fed a HFD that has 41% kcal from fat and contains no AA (D12079B; Research diets, Inc.) from 5 weeks of age were divided into 2 groups at the age of 8 weeks (8 animals per group), and were administered 10 mg/kg compound-326 or vehicle for 6 weeks. After the treatment period, mice were sacrificed and epididymal and subcutaneous fats were harvested for mRNA analysis. Nine animals maintained on a standard chow (CE2, CLEA Japan, Osaka) were used as control.

[6] = 10 mg/kg, after 6-week treatment

Structure (SMILES): O=C1Cc2c(nc(OCC(F)(F)C(F)(F)F)n(-c3ccc(OCC(F)(F)F)cc3)c2=O)N1 [Compound-326, 2-(2,2,3,3,3-Pentafluoropropoxy)-3-[4-(2,2,2-trifluoroethoxy)phenyl]-5,7-dihydro-3H-pyrrolo[2,3-d]pyrimidine-4,6-dione]
- blood AA to DGLA ratio [1]: decreased significantly
- blood level of DHA ([1]; dose dependent): decreased
- blood level of EPA ([1]; dose dependent): decreased
- blood AA ([1]; dose-dependent, non-fasting): decreased
- blood DGLA ([1]; dose-dependent, non-fasting): increased
- inhibition of D6D activity [2]: almost no inhibition
- pIC50 ([2]; Cell-based (HepG2)): < 5.00
- HOMA-IR ([3]; compound-326 0.1, 1, 10 mg/kg, after 6-week treatment, dose-dependent): decreased
- insulin levels (OGTT) ([3]; compound-326, after 6-week treatment): no change
- glucose tolerability and insulin sensitivity ([3]; observed from dose of 1 mg/kg without a significant decrease in BW): improvement
- pIC50 [4]: 7.66
- AA to DGLA ratio in epididymal fat ([5]; 10 mg/kg p.o., 6 weeks): significantly decreased
- AA to DGLA ratio in the blood ([5]; 10 mg/kg p.o., 6 weeks): decrease
- AA to DGLA ratio in the liver ([5]; 10 mg/kg p.o., 6 weeks): significantly decreased
- n-3 PUFA (EPA and DHA) in blood, liver, and adipose tissue ([5]; 10 mg/kg p.o., 6 weeks): significantly decreased
- BW ([5]; 10 mg/kg p.o., 6 weeks, vs vehicle): significantly decreased
- AA in the blood as well as liver [5, 6]: decrease
- DGLA in the blood as well as liver [5, 6]: increase
